Test results published in patent US7186565B2, “Sampling and toxicity monitoring device and method” (priority 2001, dated 2007).
Read-outs that look alike come from different tables or passages of the source.

Key:
[1] = test system: 7-ethoxyresorufin-o-deethylase (EROD) activity in a rainbow trout liver cell line (RTL-W1); test: Induction of EROD activity in RTL-W1 cells; format: cell-based; settings: Oncorhynchus mykiss
Experimental: For toxicity tests, reporter cells or molecules are preferably added to chambers in an appropriate culture medium. An appropriate liquid culture medium is one that will maintain reporter cell vitality (or reporter molecule integrity) and support expression of a chosen endpoint in the toxicological test. For example for the experiment depicted in FIG. 8, liver cells from rainbow trout (RTL-W1 cells) were added in Leibovitz' L-15 medium that contained 5% fetal bovine serum as a supplement (Bols et al., 1999). The reporters are left to desorb or interact with the chemicals at the sampler surface for a predetermined time. […] After a predetermined exposure time, the reporter cells are evaluated for the expression of toxicity. […] Other examples of toxicological endpoints would be the disruption of metabolic activity or the loss of cell membrane integrity in cultured cells, which can be measured using the fluorescent indicator dyes alamar Blue and CFDA-AM (Schirmer et al., 2000a/b), or the modulation of light emission in luminescent bacteria (Bitton and Koopman, 1992). Although not essential to the method, the arrangement of chambers in a multiwell plate format and the use of fluorescent indicator dyes or light emission is advantageous because of recent developments in automated fluorescence/luminescence multiwell plate readers. Plates with […] can be analyzed in seconds. […]

[2] = Experimental: For these experiments fluoranthene was dissolved in the aqueous medium, L-15/ex, to yield 297 nM (60 ng/ml) of fluoranthene. The fluoranthene solution was added once to empty wells of tissue culture plates, and 10 min, 2, 4, and 24 h later, the medium was removed and culture wells extracted with methanol in order to solubilize fluoranthene that had adsorbed to the culture surface. The concentration of fluoranthene in the methanol extracts was subsequently determined by high performance liquid chromatography (HPLC) and expressed as a percentage of the initial concentration, 297 nM.

SMILES	EC50 ([1]; BkF added in dissolved form to wells after cell attachment (conventional method), RTL-W1 cells, read-out: EC50 of EROD induction, dissolved BkF) [nM]	EC50 ([1]; BkF adsorbed to polystyrene culture wells prior to cell attachment, RTL-W1 cells attached 24 h before EROD measurement, read-out: EC50 of EROD induction, sorbed BkF) [nM]	binding of fluoranthene by polystyrene of tissue culture plates ([2]; 297 nM in L-15/ex, 10 min, 2, 4, 24 h)	time of exposure until sorption equilibrium is reached ([2]; single dose 297 nM (60 ng/ml) in L-15/ex in empty wells, methanol extract, HPLC)
c1ccc2cc3c(cc2c1)-c1cccc2cccc-3c12 [BkF, benzo[k]fluoranthene]	8.6	10.4	–	–
c1ccc2c(c1)-c1cccc3cccc-2c13 [fluoranthene]	–	–	high affinity	less than 24 h
